In this test the test system is IgE antibodies from patients. Nature of the test: Wheat epitope mapping (2): overlapping 10-amino-acid peptide fragments shifted by one amino acid. The class given is binding, human. To be noted: for Epitope sequence binding to IgE antibody, rank of the sequence (Key/Preferably/More preferably) / Epitope sequence binding to IgE antibody, rank of the sequence (Key/Preferably/More preferably/Further preferably): sequence without X; for Epitope sequence binding to IgE antibody, rank of the sequence (Key/Preferably/More preferably/Further preferably): serum of patient P50 (child, general immediate type allergy to wheat); for Epitope sequence binding to IgE antibody, rank of the sequence: partial sequence. The method, boiled down: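 Cellulose-bound 10-mer peptides offset by one residue were probed with patient serum IgE and detected by chemiluminescence. Secondary-antibody-only signals were subtracted per peptide. Residual binding was expressed as % of the parent overlapping peptide, scored as none (<30%), poor (30–<50%), somewhat poor (50–<70%) or retained (≥70%).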

[1] abbreviates: serum of patient P52 (child, general immediate type allergy to wheat).
Setting [2] is: serum of patient G7 (adult, general immediate type allergy to wheat).
[3] abbreviates: serum of patient G2 (adult, general immediate type allergy to wheat).
Where [4] appears, read: serum of patient P51 (child, general immediate type allergy to wheat).
Where [5] appears, read: serum of patient P53 (child, general immediate type allergy to wheat).

The values that follow come from patent publication US20240393292A1, “ALLERGY ANTIGEN AND EPITOPE THEREOF” (HOYU CO., LTD., priority 2019, published 2024).

In the case of “2411 (TEIVL; REGION 1..5: note = epitope) [compound 2411]”, the “Epitope sequence binding to IgE antibody, rank of the sequence (Key/Preferably/More preferably)” value under setting [1] is recorded as “Preferably”.

“2415 (IDRCAYV; REGION 1..7: note = epitope) [compound 2415]”: the “Epitope sequence binding to IgE antibody, rank of the sequence (Key/Preferably/More preferably)” value under setting [2] is reported as “Preferably”.

Turning to “2417 (RCAYVTEIVL; REGION 1..10: note = epitope) [compound 2417]”, the “Epitope sequence binding to IgE antibody, rank of the sequence (Key/Preferably/More preferably)” value under setting [2] is recorded as “Preferably”.

For “2418 (TEIVL; REGION 1..5: note = epitope) [compound 2418]”, the “Epitope sequence binding to IgE antibody, rank of the sequence (Key/Preferably/More preferably)” value under setting [2] is on record as “Key”.

As to “2423 (AWSGKTEN; REGION 1..8: note = epitope) [compound 2423]”, for the setting “serum of patient P12 (WDEIA)”, the “Epitope sequence binding to IgE antibody, rank of the sequence (Key/Preferably/More preferably)” value is “More preferably”.

Take “2424 (AWSGK; REGION 1..5: note = epitope) [compound 2424]”: the “Epitope sequence binding to IgE antibody, rank of the sequence (Key/Preferably/More preferably)” value (serum of patient P12 (WDEIA)) is reported as “Preferably”.

With “2432 (QSTLKAWSGK; REGION 1..10: note = epitope) [compound 2432]”, the “Epitope sequence binding to IgE antibody, rank of the sequence (Key/Preferably/More preferably)” value (serum of patient P26 (WDEIA)) is given as “More preferably”.

With “2435 (KAWSGKTEN; REGION 1..9: note = epitope) [compound 2435]”, the “Epitope sequence binding to IgE antibody, rank of the sequence (Key/Preferably/More preferably)” value (serum of patient P26 (WDEIA)) was “Preferably”.

As to “2436 (WSGKTE; REGION 1..6: note = epitope) [compound 2436]”, the “Epitope sequence binding to IgE antibody, rank of the sequence (Key/Preferably/More preferably)” value (serum of patient P26 (WDEIA)) was “Key”.

Regarding “2441 (KAWSGK; REGION 1..6: note = epitope) [compound 2441]”, the “Epitope sequence binding to IgE antibody, rank of the sequence (Key/Preferably/More preferably)” value (serum of patient P28 (WDEIA)) is recorded as “Key”.

In the case of “2453 (LKAWSGK; REGION 1..7: note = epitope) [compound 2453]”, the “Epitope sequence binding to IgE antibody, rank of the sequence (Key/Preferably/More preferably)” value (serum of patient P35 (WDEIA)) is “Preferably”.

In the case of “2460 (LKAWSGK; REGION 1..7: note = epitope) [compound 2460]”, the “Epitope sequence binding to IgE antibody, rank of the sequence (Key/Preferably/More preferably/Further preferably)” value is given as “Further preferably”.

“2461 (LKAWSG; REGION 1..6: note = epitope) [compound 2461]”: the “Epitope sequence binding to IgE antibody, rank of the sequence (Key/Preferably/More preferably/Further preferably)” value is reported as “More preferably”.

With “2464 (WSGKTENEE; REGION 1..9: note = epitope) [compound 2464]”, the “Epitope sequence binding to IgE antibody, rank of the sequence (Key/Preferably/More preferably/Further preferably)” value is “More preferably”.

Consider “2470 (LKAWSGK; REGION 1..7: note = epitope) [compound 2470]”, for which the “Epitope sequence binding to IgE antibody, rank of the sequence (Key/Preferably/More preferably)” value under setting [1] is reported as “Preferably”.

Regarding “2472 (SGKTENEE; REGION 1..8: note = epitope) [compound 2472]”, the “Epitope sequence binding to IgE antibody, rank of the sequence (Key/Preferably/More preferably)” value under setting [1] was “More preferably”.

Consider “2480 (KAWSG; REGION 1..5: note = epitope) [compound 2480]”, for which, under setting [3], the “Epitope sequence binding to IgE antibody, rank of the sequence (Key/Preferably/More preferably)” value is “Key”.

As for “2487 (KAWSGK; REGION 1..6: note = epitope) [compound 2487]”, under setting [2], the “Epitope sequence binding to IgE antibody, rank of the sequence (Key/Preferably/More preferably)” value is reported as “More preferably”.

Turning to “2493 (SSQVSF; REGION 1..6: note = epitope) [compound 2493]”, the “Epitope sequence binding to IgE antibody, rank of the sequence” value (serum of patient P2 (WDEIA)) is “Preferably”.

Regarding “2494 (QVSF; REGION 1..4: note = epitope) [compound 2494]”, under “serum of patient P2 (WDEIA)”, the “Epitope sequence binding to IgE antibody, rank of the sequence” value is listed as “Key”.

Consider “2495 (FQPSQLNPQ; REGION 1..9: note = epitope) [compound 2495]”, for which the “Epitope sequence binding to IgE antibody, rank of the sequence” value (serum of patient P2 (WDEIA)) is “Key”.

As for “2497 (QVSF; REGION 1..4: note = epitope) [compound 2497]”, the “Epitope sequence binding to IgE antibody, rank of the sequence” value (serum of patient P7 (WDEIA)) is recorded as “Key”.

Consider “2499 (SQVSF; REGION 1..5: note = epitope) [compound 2499]”, for which the “Epitope sequence binding to IgE antibody, rank of the sequence” value (serum of patient P8 (WDEIA)) was “Preferably”.

On to “2500 (QVSF; REGION 1..4: note = epitope) [compound 2500]”, for which, under “serum of patient P8 (WDEIA)”, the “Epitope sequence binding to IgE antibody, rank of the sequence” value is “Key”.

As to “2501 (SFQPSQLNPQ; REGION 1..10: note = epitope) [compound 2501]”, the “Epitope sequence binding to IgE antibody, rank of the sequence” value (serum of patient P8 (WDEIA)) was “Key”.

“2502 (SSQVSFQPSQ; REGION 1..10: note = epitope) [compound 2502]”: where the note is “serum of patient P15 (WDEIA)”, the “Epitope sequence binding to IgE antibody, rank of the sequence” value is recorded as “Preferably”.

On to “2503 (SSQVSF; REGION 1..6: note = epitope) [compound 2503]”, for which the “Epitope sequence binding to IgE antibody, rank of the sequence” value (serum of patient P15 (WDEIA)) is recorded as “Key”.

Regarding “2504 (SSQVSF; REGION 1..6: note = epitope) [compound 2504]”, the “Epitope sequence binding to IgE antibody, rank of the sequence” value (serum of patient P16 (WDEIA)) was “Preferably”.

On to “2505 (SQVSF; REGION 1..5: note = epitope) [compound 2505]”, for which the “Epitope sequence binding to IgE antibody, rank of the sequence” value (serum of patient P16 (WDEIA)) is listed as “Key”.

Consider “2506 (SSQVSFQPSQ; REGION 1..10: note = epitope) [compound 2506]”, for which, under “serum of patient P20 (WDEIA)”, the “Epitope sequence binding to IgE antibody, rank of the sequence” value is “Preferably”.

With “2507 (SQVSF; REGION 1..5: note = epitope) [compound 2507]”, the “Epitope sequence binding to IgE antibody, rank of the sequence” value (serum of patient P20 (WDEIA)) is on record as “Key”.

Regarding “2508 (SQVSF; REGION 1..5: note = epitope) [compound 2508]”, the “Epitope sequence binding to IgE antibody, rank of the sequence” value (serum of patient P22 (WDEIA)) was “Key”.

In the case of “2509 (QVSF; REGION 1..4: note = epitope) [compound 2509]”, the “Epitope sequence binding to IgE antibody, rank of the sequence” value (serum of patient P29 (WDEIA)) is listed as “Key”.

In the case of “2510 (PSQLNPQ; REGION 1..7: note = epitope) [compound 2510]”, the “Epitope sequence binding to IgE antibody, rank of the sequence” value (serum of patient P29 (WDEIA)) was “Key”.

Take “2512 (SQVSF; REGION 1..5: note = epitope) [compound 2512]”: the “Epitope sequence binding to IgE antibody, rank of the sequence” value (serum of patient P36 (WDEIA)) is recorded as “Key”.

Consider “2514 (SFQPSQLNPQ; REGION 1..10: note = epitope) [compound 2514]”, for which the “Epitope sequence binding to IgE antibody, rank of the sequence” value under setting [4] is “Preferably”.

In the case of “2515 (SFQPSQ; REGION 1..6: note = epitope) [compound 2515]”, the “Epitope sequence binding to IgE antibody, rank of the sequence” value under setting [4] is on record as “Key”.

In the case of “2516 (SSQVSF; REGION 1..6: note = epitope) [compound 2516]”, under setting [5], the “Epitope sequence binding to IgE antibody, rank of the sequence” value is listed as “Key”.

Turning to “2518 (PSQLNPQ; REGION 1..7: note = epitope) [compound 2518]”, the “Epitope sequence binding to IgE antibody, rank of the sequence” value under setting [5] was “Preferably”.

With “2519 (PSQLN; REGION 1..5: note = epitope) [compound 2519]”, the “Epitope sequence binding to IgE antibody, rank of the sequence” value under setting [5] is “Key”.

For “2523 (PSQLNPQA; REGION 1..8: note = epitope) [compound 2523]”, for the setting “serum of patient P56 (child, general immediate type allergy to wheat)”, the “Epitope sequence binding to IgE antibody, rank of the sequence” value is “Further preferably”.

As to “2528 (SSQVSF; REGION 1..6: note = epitope) [compound 2528]”, the “Epitope sequence binding to IgE antibody, rank of the sequence” value under setting [3] is “Key”.

Regarding “2530 (FQPSQLNP; REGION 1..8: note = epitope) [compound 2530]”, under setting [3], the “Epitope sequence binding to IgE antibody, rank of the sequence” value is “Preferably”.

Regarding “2531 (FQPSQLN; REGION 1..7: note = epitope) [compound 2531]”, the “Epitope sequence binding to IgE antibody, rank of the sequence” value under setting [3] is reported as “Key”.

For “2541 (SSQVSFQPSQ; REGION 1..10: note = epitope) [compound 2541]”, the “Epitope sequence binding to IgE antibody, rank of the sequence” value under setting [2] was “Preferably”.

“2542 (SSQVSF; REGION 1..6: note = epitope) [compound 2542]”: the “Epitope sequence binding to IgE antibody, rank of the sequence” value under setting [2] was “Key”.

For the substance “2543 (VSFQPSQLN; REGION 1..9: note = epitope) [compound 2543]”, under setting [2], the “Epitope sequence binding to IgE antibody, rank of the sequence” value is on record as “Preferably”.

With “2547 (QSTYQLVQQL; REGION 1..10: note = epitope) [compound 2547]”, the “Epitope sequence binding to IgE antibody, rank of the sequence” value (serum of patient P2 (WDEIA)) is on record as “Preferably”.

On to “2548 (QSTY; REGION 1..4: note = epitope) [compound 2548]”, for which the “Epitope sequence binding to IgE antibody, rank of the sequence” value (serum of patient P2 (WDEIA)) was “Key”.

On to “2549 (QLVQQLCC; REGION 1..8: note = epitope) [compound 2549]”, for which the “Epitope sequence binding to IgE antibody, rank of the sequence” value (serum of patient P2 (WDEIA)) is recorded as “Key”.

With “2552 (QLVQQLCC; REGION 1..8: note = epitope) [compound 2552]”, the “Epitope sequence binding to IgE antibody, rank of the sequence” value (serum of patient P7 (WDEIA)) was “Preferably”.

On to “2553 (QLVQ; REGION 1..4: note = epitope) [compound 2553]”, for which, where the note is “serum of patient P7 (WDEIA)”, the “Epitope sequence binding to IgE antibody, rank of the sequence” value was “Key”.

Turning to “2554 (LQQSTYQLVQ; REGION 1..10: note = epitope) [compound 2554]”, for the setting “serum of patient P20 (WDEIA)”, the “Epitope sequence binding to IgE antibody, rank of the sequence” value is on record as “Key”.

With “2555 (QSTYQLVQQL; REGION 1..10: note = epitope) [compound 2555]”, the “Epitope sequence binding to IgE antibody, rank of the sequence” value (serum of patient P20 (WDEIA)) was “Key”.

On to “2556 (QLVQQLCC; REGION 1..8: note = epitope) [compound 2556]”, for which the “Epitope sequence binding to IgE antibody, rank of the sequence” value (serum of patient P20 (WDEIA)) was “Key”.

Take “2558 (QSTYQLVQQL; REGION 1..10: note = epitope) [compound 2558]”: under “serum of patient P21 (WDEIA)”, the “Epitope sequence binding to IgE antibody, rank of the sequence” value is on record as “Key”.
